From patent US12030897B2, “Pyrrolo[2,1-f][1,2,4]triazine derivatives serving as selective HER2 inhibitors and application thereof” (MEDSHINE DISCOVERY INC., priority 2018, dated 2024)
“And” between values parts separate entries of the source, which are not always exact repeats. Equal entries are not always repeated.

Key:
HER2 (ErbB2) = HER2 (ErbB2) (Homo sapiens (Human), UniProt P04626); experiment: In vitro enzyme activity, HER2 (ErbB2), [γ-33P]ATP filter assay; format: biochemical
Procedure: The object of this test is to detect the in vitro inhibitory activity of the compound against HER1 (ErbB1), HER2 (ErbB2) and HER4 (ErbB4). The enzymes used in this test were human ErbB1, ErbB2 and ErbB4. Eurofins Pharma Discovery Service provided the activity detection method, and the results of the inhibitory activity of the tested compound against HER1, HER2 and HER4 were shown in Table 1.
Experimental Steps and Methods (96-Well Plate):
5-fold diluted tested compound buffer (5 μL), peptide substrate poly(Glu, Tyr) (4:1) (2.5 μL), ErbB (4-20 ng, 2.5 μL), MnCl2 (50 mM, 1.25 μL), dH2O (3.75 μL) and [γ-^33P]ATP (10 μL) were added, and incubated at 30° C. for 10 min. 3% phosphoric acid was added to terminate the reaction, and 10 μL of the specimen was transferred to Filtermate A. The filter was washed with 75 mM phosphoric acid for three times and methanol once, and transferred to a sealed plastic bag, and a scintillation fluid mixture (4 mL) was added, The intensity of the emitted photons was detected on the scintillation luminescence counter. The photon intensity of the enzyme sample was compared with the photon intensity of the internal control sample, and the level of photon intensity reflected the strength of the tyrosine kinase activity.

BT-474 cell = experiment: Cell proliferation inhibitory activity, Cell-Titer-Glo, BT-474; format: cell-based; details: Homo sapiens, BT-474, 72 h; 3 days incubation
Text: Experiment object: to detect the inhibitory activity of the tested compound on cell proliferation.
Experimental principle: the luciferase in the Cell-Titer-Glo reagent uses luciferin, oxygen and ATP as reaction substrates to produce oxyluciferin and release energy in the form of light. Since the luciferase reaction requires ATP, the total amount of light produced by the reaction is proportional to the total amount of ATP that reflects cell viability.
Experimental Materials: • cell lines: NCI-N87 cell line (ATCC-CRL-5822); BT-474 cell line (ATCC-HTB-20) • Cell culture medium: RPMI 1640 medium (Invitrogen #22400-105; 10% serum Invitrogen #10090148; L-glutamine 1×, Gibco #25030-081; double antibody Hyclone #SV30010) • CellTiter-Glo® luminescence cell viability detection kit (Promega #G7573) • 384-well cell culture plate (Greiner #781090) • Compound plate (LABCYTE #LP-0200) • CO2 incubator (Thermo #371) • Vi-cell cell counter (Beckman Coulter) • Pipette (Eppendorf) • Pipette (Greiner) • Pipetting gun (Eppendorf) • Multifunctional microplate reader (Envision Reader) • ECHO Liquid-handling workstation (Labcyte-ECHO555)
The cells were inoculated in a 384-well plate with a density of 1000 cells per well and 25 μL per well. The edge wells were not inoculated with cells, and was supplemented with 25 μL of phosphate buffer.
The compound was added to the plate with 9 μL per well.
(2) The compound was diluted with ECHO liquid-handling workstation, and each well of the cell plate was added with 125 nL of compound. Each well of the cell wells of columns 2 and 23 was added with 125 nL of DMSO, and each well of the Media wells of columns 1 and 24 was added with 125 nL of DMSO.
(3) Each well of the cell plate was supplemented with 25 μL of culture medium, and the final volume in each well of the cell plate was 50 μL. The concentration of the compound was 10 μM, which was subjected to 3 fold dilution to obtain 10 concentrations. Each concentration was duplicated in left and right wells, and the final DMSO concentration was 0.25%.
2.3 After adding the compound, it was centrifuged at 1000 rpm for 1 min. The cell plate was placed in a 37° C., 5% CO2 incubator for 3 days.
The cell plate was taken from the incubator and equilibrated at room temperature for 30 min. 25 μL of Cell-Titer-Glo reagent was added to each well, shaken for 1 min to make it thoroughly mixed, and centrifuged at 1000 rpm for 1 min. After 10 min, the plate was read on PerkinElmer Envision, and the […] reading time was set to 0.2 seconds.

CYP1A2 = CYP1A2 (Homo sapiens (Human), UniProt P05177); format: in vitro ADME; details: microsomes
Procedure: The object of this study was to evaluate the effect of Example 4 on the activities of five isoenzymes (CYP1A2, CYP2C9, CYP2C19, CYP2D6 and CYP3A4) of human liver microsomal cytochrome P450 (CYP) using an in vitro test system. The specific probe substrates of CYP450 isozymes were incubated with human liver microsomes and different concentrations of Example 4, and reduced nicotinamide adenine dinucleotide phosphate (NADPH) was added to initiate the reaction. After the reaction was completed, the samples were treated, and liquid chromatography tandem mass spectrometry (LC/MS/MS) was used to detect the metabolites produced by specific substrates.

[1] = tested on: human gastric cancer NCI-N87 cell subcutaneous xenograft tumor; experiment: In vivo efficacy, NCI-N87 subcutaneous xenograft tumor model; parameters: species or system BALB/c nude mice; details: 100 mg/kg
Procedure: Experiment object: to study the efficacy of the tested compound on human gastric cancer NCI-N87 cell subcutaneous xenograft tumor in the BALB/c nude mouse model.
Experimental animals: female BALB/c nude mice, 6 to 8 weeks old, weight: 18 to 22 grams; Supplier: Shanghai Xipuer-Bikai Laboratory Animal Co., Ltd.
Human gastric cancer NCI-N87 cells were cultured in a monolayer in vitro, and the culture conditions were: RPMI-1640 medium with 10% fetal bovine serum, 100 U/mL penicillin, 100 μg/mL streptomycin and 2 mM glutamine, and 37° C., 5% CO2. Conventional digestion treatment with pancreatin-EDTA for passage was carried out twice a week. When the cell saturation was 80% to 90%, the cells were collected, counted and inoculated.
0.2 mL of (10×10^6) NCI-N87 cells were subcutaneously inoculated into the right back of each nude mouse (PBS:Matrigel=1:1). The grouping and administration were started when the average tumor volume reached 130 mm^3.
The tested compound was prepared as a 10 mg/mL solution, and the solvent was 10% NMP+10% ethylene glycol stearate+80% water.
The experimental index was to investigate whether the tumor growth was inhibited, delayed or cured. Tumor diameter was measured twice a week with a vernier caliper. the calculation formula of tumor volume: V=0.5a×b^2, wherein a and b represented the long and short diameters of the tumor, respectively.
The anti-tumor efficacy of the compound was evaluated by TGI (%) or relative tumor proliferation rate T/C (%). TGI (%) reflected the tumor growth inhibition rate.
relative tumor growth rate T/C (%): calculation formula was as follows: T/C %=TRTV/CRTV (TRTV: RTV of the treatment group; CRTV: RTV of the solvent control group). The relative tumor volume (RTV) was calculated according to the results of the tumor measurement. The calculation equation was RTV=Vt/V0, where V0 was the average tumor volume measured at beginning of the grouping and administration (i.e., d0), and Vt was the average tumor volume at the time of a certain measurement. TRTV and CRTV were obtained from the data on the same day.
Statistical analysis included mean value and standard error (SEM) of the tumor volume of each group at each time point. […] The comparison between two groups was analyzed by T-test, and the comparison between three or more groups was analyzed by one-way ANOVA.

Chain of CYP1A2 (P05177 whole entry): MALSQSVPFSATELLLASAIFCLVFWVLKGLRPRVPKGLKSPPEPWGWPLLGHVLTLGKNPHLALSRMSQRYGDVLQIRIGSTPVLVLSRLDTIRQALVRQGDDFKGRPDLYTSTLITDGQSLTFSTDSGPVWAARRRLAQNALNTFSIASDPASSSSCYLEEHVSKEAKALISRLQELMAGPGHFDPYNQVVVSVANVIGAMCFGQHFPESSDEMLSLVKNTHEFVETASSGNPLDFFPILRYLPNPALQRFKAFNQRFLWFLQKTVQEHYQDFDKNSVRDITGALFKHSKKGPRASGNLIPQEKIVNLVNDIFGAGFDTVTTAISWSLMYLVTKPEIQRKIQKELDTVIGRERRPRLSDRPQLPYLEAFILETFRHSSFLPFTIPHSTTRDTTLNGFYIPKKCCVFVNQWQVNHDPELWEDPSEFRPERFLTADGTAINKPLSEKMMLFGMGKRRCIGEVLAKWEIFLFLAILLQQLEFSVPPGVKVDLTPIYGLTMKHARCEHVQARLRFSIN
Chain of HER2 (ErbB2) (P04626 23-1255): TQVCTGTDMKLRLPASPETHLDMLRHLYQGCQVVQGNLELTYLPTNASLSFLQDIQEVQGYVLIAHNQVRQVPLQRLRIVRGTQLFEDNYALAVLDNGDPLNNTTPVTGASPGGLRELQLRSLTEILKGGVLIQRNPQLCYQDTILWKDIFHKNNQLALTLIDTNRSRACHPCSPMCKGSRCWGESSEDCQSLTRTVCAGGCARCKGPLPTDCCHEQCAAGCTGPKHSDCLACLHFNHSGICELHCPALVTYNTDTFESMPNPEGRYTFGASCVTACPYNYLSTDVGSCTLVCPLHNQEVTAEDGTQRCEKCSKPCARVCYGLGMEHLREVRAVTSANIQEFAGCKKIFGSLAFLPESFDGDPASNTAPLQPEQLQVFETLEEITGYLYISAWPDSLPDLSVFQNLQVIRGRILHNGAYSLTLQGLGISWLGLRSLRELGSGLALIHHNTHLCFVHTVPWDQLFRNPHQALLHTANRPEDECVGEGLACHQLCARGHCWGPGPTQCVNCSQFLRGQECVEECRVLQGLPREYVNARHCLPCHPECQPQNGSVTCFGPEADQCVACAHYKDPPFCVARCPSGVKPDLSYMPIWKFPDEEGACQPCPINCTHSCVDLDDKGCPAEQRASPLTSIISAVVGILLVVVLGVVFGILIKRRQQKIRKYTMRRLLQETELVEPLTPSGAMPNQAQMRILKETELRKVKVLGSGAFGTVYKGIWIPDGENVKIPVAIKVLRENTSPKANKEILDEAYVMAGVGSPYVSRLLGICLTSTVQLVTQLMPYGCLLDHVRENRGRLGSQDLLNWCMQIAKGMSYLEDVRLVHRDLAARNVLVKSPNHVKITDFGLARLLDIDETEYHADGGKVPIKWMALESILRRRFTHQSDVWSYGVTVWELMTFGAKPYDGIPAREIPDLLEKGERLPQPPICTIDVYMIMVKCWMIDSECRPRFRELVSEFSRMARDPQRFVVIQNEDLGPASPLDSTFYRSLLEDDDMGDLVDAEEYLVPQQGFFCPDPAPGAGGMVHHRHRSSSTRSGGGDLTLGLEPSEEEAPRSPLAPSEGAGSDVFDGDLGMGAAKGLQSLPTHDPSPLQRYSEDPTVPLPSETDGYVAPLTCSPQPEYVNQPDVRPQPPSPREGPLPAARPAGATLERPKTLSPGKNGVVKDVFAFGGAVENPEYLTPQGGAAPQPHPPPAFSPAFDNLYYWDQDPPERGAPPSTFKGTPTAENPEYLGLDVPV

Question: How did the IC50 (HER2 (ErbB2)) turn out when `Cc1cc(Nc2ncnn3ccc(CN4CCC(N)CC4)c23)ccc1Oc1ccn2ncnc2c1` [Example 4] was run?
Answer: 12 nM

Question: And the IC50 (BT-474 cell)?
Answer: 23 nM

Question: What about the IC50 (CYP1A2) of the same compound?
Answer: > 50000 nM

Question: What about the “body weight of the mice in the treatment group” value [1] of the same compound?
Answer: decreased slightly

Question: And the T/C ([1]; day 21)?
Answer: 2.92%

Question: And the TGI ([1]; day 21)?
Answer: 112.13%

Question: What about the “Tumor volume (Day 21)” value ([1]; day 21, mean ± SEM) of the same compound?
Answer: 29 mm^3 and 29 ± 7 mm^3
